# Test results taken from patent publication US8846746B2, “Pyrazole compound and pharmaceutical use thereof” (Japan Tobacco Inc., priority 2011, dated 2014).
# Target: human SGLT1 (Homo sapiens (Human), UniProt P13866)
# Test: SGLT1 inhibitory activity: 14C-AMG uptake into CHO-K1 cell line stably expressing human SGLT1
# Format: cell-based
# Conditions: for IC50: 14C-AMG uptake; for inhibition at 0.1 µM: CHO-K1, at 0.1 uM
# Method: SGLT1 inhibitory activity of a test compound (IC50 value) was calculated based on an amount of intake into a cell of labeled α-methyl-D-glucopyranoside (^14C-AMG) which is transported by SGLT1.
# 1) Construction of Human SGLT1 Expression Plasmid
# A DNA fragment containing human SGLT1, wherein NheI recognition and cleavage sequence was added upstream of a Kozac consensus sequence of the vector; and a stop codon (TAG) and a SalI recognition and cleavage sequence was added just downstream of a coding region of the human SGLT1, was amplified by PCR using pCMV6-hSGLT1 (OriGene) as a template. The purified DNA fragment was cleaved by restriction enzymes NheI and SalI, and the obtained fragment was ligated into pcDNA3.1 (+) which was cleaved by NheI and XhoI to construct human SGLT1 expression plasmid.
# 2) Establishment of Stable Cell Lines Expressing Human SGLT1
# A human SGLT1 expression plasmid pcDNA-hSGLT1 was transfected into CHO-K1 cells by Lipofectamine-2000 (Invitrogen). The cells were cultured in the presence of G418 (Nakalai tesque) and drug-resistant cells were selected. A cell line having the highest S/B ratio of an amount of ^14C-AMG uptake per cell treated by solvent to an amount of ^14C-AMG uptake per cell treated by phlorizin (SGLT inhibitor) was selected from the drug-resistant cells as a stable cell lines expressing human SGLT1.
# 3) Evaluation of SGLT1 Inhibitory Activity
# The stable cell line expressing human SGLT1 was seeded at 5×10^4 cells/well on BioCoat™ Poly-D-Lysine 96 well plate with Lid (Becton Dickinson and Company) and cultured at 37° C. under 5% CO2 overnight. The medium was replaced with 100 μL/well of a Na (−) buffer (140 mM choline chloride, 2 mM KCl, 1 mM MgCl2, 1 mM CaCl2, 10 mM HEPES, 5 mM Tris, pH7.4) followed by incubation for 20 minutes at 37° C. under 5% CO2. After removing the Na (−) buffer, a test compound solution which was prepared from Na (+) buffer (140 mM NaCl, 2 mM KCl, 1 mM MgCl2, 1 mM CaCl2, 10 mM HEPES, 5 mM Tris, pH7.4) containing BSA was added thereto at 40 μL/well. In addition, Na (+) buffer containing 8 kBq of ^14C-AMG and 2 mM AMG was added thereto at 40 μL/well, and was mixed well. Na (−) buffer containing BSA was added to a blank well at 40 μL/well and additionally adding a Na (+) buffer containing 8 kBq of ^14C-AMG and 2 mM AMG, and was mixed well. Cells were incubated for 1 hour at 37° C. under 5% CO2. After the reaction, the cells were washed twice with 100 μL/well of iced wash buffer (100 mM AMG, 140 mM choline chloride, 2 mM KCl, 1 mM MgCl2, 1 mM CaCl2, 10 mM HEPES, 5 mM Tris, pH7.4), then lysed in 50 μL/well of a 0.2N aqueous solution of NaOH. The cell lysate was transferred to OptiPlate96 (Perkin-Elmer) and 100 μL/well of MicroScint-40 (Perkin-Elmer) was dispensed. The radioactivity was counted by TOPCOUNT NXT (Perkin-Elmer).
# A data was obtained by deducting the average value (CPM) of blank wells from the average value (CPM) of each treated well. The inhibition ratio (%) was calculated by the following formula: inhibition rate (%)=[(A−B)/A]×100, where A is a data of the solvent control, and B is a data of a test compound.
# [1] = CHO-K1 cells stably expressing human SGLT1
# [2] = CHO-K1 cells expressing human SGLT1
# Chain of human SGLT1 (P13866 whole entry): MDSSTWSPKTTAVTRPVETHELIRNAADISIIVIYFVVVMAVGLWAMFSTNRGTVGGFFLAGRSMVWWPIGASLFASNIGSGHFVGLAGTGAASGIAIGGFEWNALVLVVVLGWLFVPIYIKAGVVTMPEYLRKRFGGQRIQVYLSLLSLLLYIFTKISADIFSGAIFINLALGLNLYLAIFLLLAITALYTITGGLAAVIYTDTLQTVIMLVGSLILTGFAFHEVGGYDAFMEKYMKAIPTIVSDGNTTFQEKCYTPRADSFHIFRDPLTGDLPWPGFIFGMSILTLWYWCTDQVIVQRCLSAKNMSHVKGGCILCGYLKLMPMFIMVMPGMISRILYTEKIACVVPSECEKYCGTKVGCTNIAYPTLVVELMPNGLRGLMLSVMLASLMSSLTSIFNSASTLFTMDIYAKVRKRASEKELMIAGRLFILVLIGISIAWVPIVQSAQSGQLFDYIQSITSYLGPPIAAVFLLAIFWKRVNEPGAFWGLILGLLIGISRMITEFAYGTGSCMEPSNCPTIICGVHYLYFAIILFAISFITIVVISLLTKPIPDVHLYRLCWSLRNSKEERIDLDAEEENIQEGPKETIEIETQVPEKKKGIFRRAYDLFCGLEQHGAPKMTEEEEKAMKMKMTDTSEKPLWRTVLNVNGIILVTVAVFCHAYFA
IC50 [1] [nM],SMILES,also measured
14,"CC(C)(OCc1cc(Cl)cc(-c2cc(NC(=O)[C@@H]3CNC(=O)C3)nn2-c2ccccc2)c1)C(F)(F)F [Example 243, (S)-5-oxopyrrolidine-3-carboxylic acid[5-[3-chloro-5-(2,2,2-trifluoro-1,1-dimethylethoxymethyl)phenyl]-1-phenyl-1H-pyrazol-3-yl]amide]",–
7.6,CC(C)(OCc1cc(F)cc(-c2cc(NC(=O)[C@@H]3CNC(=O)C3)nn2-c2ccc(Cl)cc2)c1)C(F)(F)F [Example 580],–
1.4,CC(C)Oc1ccc(F)c(-n2nc(NC(=O)[C@@H]3CNC(=O)C3)cc2-c2cccc(COCC(F)(F)F)c2)c1 [Example 461],–
30,CCCc1cccc(-c2cc(NC(=O)[C@@H]3CNC(=O)C3)nn2-c2ccc(OC)cc2)c1 [Example 362],–
4.7,C[C@@H](OCc1cccc(-c2cc(NC(=O)[C@@H]3CNC(=O)C3)nn2-c2ccccc2F)c1)C(F)(F)F [Example 472],–
55,O=C1C[C@H](C(=O)Nc2cc(-c3cc(Cl)cc(COCC(F)(F)F)c3)n(-c3ccc(F)cc3)n2)CN1 [Example 589],–
25,"O=C1C[C@H](C(=O)Nc2cc(-c3cc(F)cc(COCC(F)(F)F)c3)n(-c3ccc(F)cc3)n2)CN1 [Example 248, (S)-5-oxopyrrolidine-3-carboxylic acid{1-(4-fluorophenyl)-5-[3-fluoro-5-(2,2,2-trifluoroethoxymethyl)phenyl]-1H-pyrazol-3-yl}amide]",–
17,O=C1C[C@H](C(=O)Nc2cc(-c3cccc(COCC(F)(F)F)c3)n(-c3cccc(F)c3)n2)CN1 [Example 468],–
4.3,CCCOc1cccc(-n2nc(NC(=O)[C@@H]3CNC(=O)C3)cc2-c2cccc(COCC(F)(F)F)c2)c1 [Example 448],–
9.95,"C[C@@H](OCc1cc(Cl)cc(-c2cc(NC(=O)[C@@H]3CNC(=O)C3)nn2-c2ccccc2)c1)C(F)(F)F [Example 241, (S)-5-oxopyrrolidine-3-carboxylic acid{5-[3-chloro-5-((R)-2,2,2-trifluoro-1-methylethoxymethyl)phenyl]-1-phenyl-1H-pyrazol-3-yl}amide]",–
7,"C[C@@H](OCc1cc(F)cc(-c2cc(NC(=O)[C@@H]3CNC(=O)C3)nn2-c2ccc(F)cc2)c1)C(F)(F)F [Example 239, (S)-5-oxopyrrolidine-3-carboxylic acid{1-(4-fluorophenyl)-5-[3-fluoro-5-((R)-2,2,2-trifluoro-1-methylethoxymethyl)phenyl]-1H-pyrazol-3-yl}amide]",–
2.3,CC(C)Oc1cccc(-n2nc(NC(=O)[C@@H]3CNC(=O)C3)cc2-c2cccc(COCC(F)(F)F)c2)c1 [Example 449],–
13,O=C1C[C@H](C(=O)Nc2cc(-c3cc(F)cc(COC(C(F)(F)F)C(F)(F)F)c3)n(-c3ccc(F)cc3)n2)CN1 [Example 573],–
9,"C[C@@H](OCc1cc(Cl)cc(-c2cc(NC(=O)[C@@H]3CNC(=O)C3)nn2-c2ccc(F)cc2)c1)C(F)(F)F [Example 242, (S)-5-oxopyrrolidine-3-carboxylic acid{5-[3-chloro-5-((R)-2,2,2-trifluoro-1-methylethoxymethyl)phenyl]-1-(4-fluorophenyl)-1H-pyrazol-3-yl}amide]",–
36,CCCc1cccc(-c2cc(NC(=O)[C@@H]3CNC(=O)C3)nn2-c2ccc(O)cc2)c1 [Example 371],–
3.2,C[C@@H](OCc1cc(F)cc(-c2cc(NC(=O)[C@@H]3CNC(=O)C3)nn2-c2ccccc2Cl)c1)C(F)(F)F [Example 513],–
16,CCCOc1cc(-n2nc(NC(=O)[C@@H]3CNC(=O)C3)cc2-c2cccc(OC(F)(F)F)c2)ccc1F [Example 423],–

# The remaining lines, values behind:
SMILES,IC50 [1] [nM],also measured
O=C1C[C@H](C(=O)Nc2cc(-c3cccc(OCCCC(F)(F)F)c3)n(-c3ccccc3)n2)CN1 [Example 273],27,–
O=C1C[C@H](C(=O)Nc2cc(-c3cccc(C4CC4)c3)n(-c3ccccc3)n2)CN1 [Example 93],–,IC50 [2]: 31 nM
CCCc1cccc(-c2cc(NC(=O)C3CNC(=O)C3CCO)nn2-c2ccccc2)c1 (racemic) [Example 115],–,IC50 [2]: 41 nM
CCC(F)(F)c1cccc(-c2cc(NC(=O)[C@H]3CNC(=O)C3)nn2CCOC(C)C)c1 [Example 175],–,inhibition at 0.1 µM: 40%
CC(C)(C)c1cccc(-c2cc(NC(=O)[C@H]3CNC(=O)C3)nn2CCC2CCCCC2)c1 [Example 129],–,IC50 [2]: 28 nM
CCCc1cccc(-c2cc(NC(=O)[C@H]3CNC(=O)C3)nn2-c2ccccc2OC)c1 [Example 133],–,IC50 [2]: 11 nM
CC(C)Cc1cccc(-c2cc(NC(=O)[C@H]3CNC(=O)C3)nn2-c2ccccc2)c1 [Example 70],–,IC50 [2]: 1.6 nM
Cc1cc(-c2cc(NC(=O)[C@@H]3CNC(=O)C3)nn2-c2ccccc2)cc(C(C)(C)C)c1 [Example 411],4.4,–
C[C@H]1C(=O)NC[C@@H]1C(=O)Nc1cc(-c2cccc(OC(F)(F)F)c2)n(C2CCC(F)(F)CC2)n1 [Example 198],–,IC50 [2]: 67 nM
CCCc1cccc(-c2cc(NC(=O)[C@@H]3CNC(=O)C3)nn2-c2cccc(OCC(C)C)c2)c1 [Example 381],11.5,–
C/C=C/c1cccc(-n2nc(NC(=O)[C@@H]3CNC(=O)C3)cc2-c2cccc(CCC)c2)c1 [Example 494],9.1,–
CC(C)Oc1cccc(-c2cc(NC(=O)[C@@H]3CNC(=O)C3)nn2-c2ccccc2)c1 [Example 301],63,–
CCCc1cccc(-c2cc(NC(=O)[C@@H]3CNC(=O)N3C(C)C)nn2-c2ccccc2)c1 [Example 327],–,"inhibition at 0.3 µM (CHO-K1, at 0.3 uM): 15%"
CCC1C(=O)NCC1C(=O)Nc1cc(-c2cccc(OC(F)(F)F)c2)n(-c2ccccc2)n1 (stereo not shown) [Example 310],–,inhibition at 0.1 µM: 42%
O=C1CC[C@@H](C(=O)Nc2cc(-c3cccc(COCC(F)(F)F)c3)n(-c3ccccc3)n2)N1 [Example 549],–,inhibition at 0.1 µM: 41%
CCCc1cccc(-c2cc(NC(=O)[C@@H]3CNC(=O)C3)nn2-c2cccc(OC(C)C)c2)c1 [Example 344],3.35,–
O=C1C[C@H](C(=O)Nc2cc(-c3cccc(Cl)c3)n(-c3ccccc3)n2)CN1 [Example 39],–,IC50 [2]: 350 nM
CCCc1cccc(-c2cc(NC(=O)[C@@H]3COC(=O)N3)nn2-c2ccccc2)c1 [Example 368],56,–
O=C1C[C@@H](C(=O)Nc2cc(-c3cccc(C(F)(F)F)c3)n(-c3ccccc3Cl)n2)CN1 [Example 205],–,IC50 [2]: 3.6 nM
CC(C)(C)c1cccc(-c2cc(NC(=O)[C@H]3CNC(=O)C3)nn2-c2ccccc2)c1 [Example 25],–,IC50 [2]: 1.8 nM
O=C1C[C@@H](C(=O)Nc2cc(-c3cccc(OCC(F)(F)F)c3)n(-c3cccc(F)c3)n2)CN1 [Example 206],–,IC50 [2]: 4.8 nM
O=C1C[C@H](C(=O)Nc2cc(-c3cccc(OC(F)(F)F)c3)n(-c3ccccc3Cl)n2)CN1 [Example 473],7.5,–
CCCc1cccc(-c2cc(NC(=O)[C@@H]3CNC(=O)C3)nn2-c2cccc(OCCO)c2)c1 [Example 408],8,–
C[C@H]1C(=O)NC[C@@H]1C(=O)Nc1cc(-c2cccc(COCC(F)(F)F)c2)n(-c2ccccc2)n1 [Example 559],7.7,–
CCCc1cccc(-c2cc(NC(=O)C3CCS(=O)(=O)CC3)nn2-c2ccccc2)c1 [Example 302],1.5,–
CCCc1cccc(-c2cc(NC(=O)[C@@H]3CNC(=O)C3)nn2-c2cccc(CCC(C)(C)C)c2)c1 [Example 498],70,–
"O=C1CCC(C(=O)Nc2cc(-c3cccc(OC(F)(F)F)c3)n(-c3ccccc3)n2)CN1 (single isomer, unassigned) [Example 150]",–,IC50 [2]: 7.7 nM
CC(C)(C)COc1cccc(-c2cc(NC(=O)[C@H]3CNC(=O)C3)nn2-c2ccccc2)c1 [Example 289],4.5,–
CCCc1cccc(-c2cc(NC(=O)[C@H]3CNC(=O)C3)nn2-c2cccc(F)c2)c1 [Example 103],–,IC50 [2]: 5 nM
